# No end group written: not given here.
# Tests used:
# [1] = system: primary human airway smooth muscle cells; assay: Pattern contraction / force generation screening of airway smooth muscle cells in 96 well plate; type: cell-based; conditions: for contraction of ASM cells (pattern deflection): ASM cells exposed to the compound
# From the text: The image processing software 36 identifies all instances of a given molecular pattern 16 in an image stack and determines how many cells (e.g., 0, 1, or 2+) are adhered to each pattern 16 based on images of those cells 11 with stained nuclei. A MATLAB script opens the image files and pairs the stained nuclei images (e.g., DAPI images) with the fluorescent images of the patterns 16 (e.g., FITC images). The image processing software 36 calculates characteristic pixel length(s) of a given pattern 16 for the cases of no cells adhered and one (1) cell adhered. The ‘FITC’ images may be linearly scaled up with, for example, the MATLAB function ‘imresize’ to improve resolution of these measurements. For those patterns with zero cells adhered thereto, the center of each pattern 16 may be determined using binary center-of-mass calculations. For those patterns 16 with one (1) cell adhered thereto, a series of binary dilation and erosion operations, followed by a binary center-of-mass calculation on patterns is performed. The erosion/dilation procedure is used to remove the potential asymmetry in the pattern 16 arising from cell-induced deformations that would otherwise impact the location of the center of mass. Patterns 16 with two or more nuclei are not analyzed. For each processed pattern 16 (those that are crosses or “X” shaped), the diagonal distance in pixels is measured between the calculated center and the bright edge of the pattern 16 in each direction as illustrated in FIG. 10. […] These measurements are stored, converted to microns based on the magnification used (typically 10×). These lengths are normalized to the median of those measured in patterns 16 with no cells (nominally 0 pixel deformations which is used as a control) and a relative distribution plot for patterns with one (1) cell is generated (see FIG. 8). Cropped images of each pattern 16 screened by the image processing software 36 in a given location and the images of the corresponding cell nuclei on those patterns 16 are saved and may be reviewed if an execution error is suspected. FIG. 8 illustrates examples of cropped DAPI and FITC images.
# FIGS. 6A and 6B illustrate another embodiment of the invention. In this embodiment, a substrate 40 such as a plate having apertures 42 formed therein (non-tapered) is adhered to the layer 12 such that individual wells 44 are formed over the surface of the layer 12 with each well 44 containing a plurality of fluorescent patterns 16. […]
# These patterns 16 are then used as the controls. For example, similarly shaped patterns with no cells 11 thereon may have their respective dimensions measured and a baseline established that is representative of no deflection in the pattern 16. […]
# HeLa cells = assay: Dose-response force phenotyping of HeLa cells in well-based embodiment; type: cell-based, human; conditions: increased concentration, FIG. 12A
# From the text: The image processing software 36 identifies all instances of a given molecular pattern 16 in an image stack and determines how many cells (e.g., 0, 1, or 2+) are adhered to each pattern 16 based on images of those cells 11 with stained nuclei. A MATLAB script opens the image files and pairs the stained nuclei images (e.g., DAPI images) with the fluorescent images of the patterns 16 (e.g., FITC images). The image processing software 36 calculates characteristic pixel length(s) of a given pattern 16 for the cases of no cells adhered and one (1) cell adhered. The ‘FITC’ images may be linearly scaled up with, for example, the MATLAB function ‘imresize’ to improve resolution of these measurements. For those patterns with zero cells adhered thereto, the center of each pattern 16 may be determined using binary center-of-mass calculations. […] Patterns 16 with two or more nuclei are not analyzed. For each processed pattern 16 (those that are crosses or “X” shaped), the diagonal distance in pixels is measured between the calculated center and the bright edge of the pattern 16 in each direction as illustrated in FIG. 10. […] These lengths are normalized to the median of those measured in patterns 16 with no cells (nominally 0 pixel deformations which is used as a control) and a relative distribution plot for patterns with one (1) cell is generated (see FIG. 8). […]
compound,measurement,setting,value
O=S(=O)(c1cccc2c(I)cccc12)N1CCCNCC1 [ML-7],relaxation of smooth muscle contraction (reduction in deflection amount),"[1]; added after contraction by acetylcholine, enodthelin-1 or histamine, FIG. 11A",shown to relax smooth muscle contraction
CC(C)(C)NCC(O)c1ccc(O)c(CO)c1 (centres unmarked) [albuterol],relaxation of ASM cells,"[1]; added after contraction in response to histamine, FIG. 11B",relaxation
Cc1ccc2c(c1)C(=O)C1(O)CCN(c3ccccc3)C1=N2 (centres unmarked) [blebbistatin],deflection as function of concentration,HeLa cells,less deflection
NCCc1c[nH]cn1 [histamine],contraction of ASM cells (pattern deflection),[1]; FIG. 11A,contraction
"enodthelin-1 (CSCSSLMDKECVYFCHLDIIW; ends and bridges not checked; cysteine pairing not given here; UniProt P05305 53-73, looked up) [contractile stimulus for ASM cells]",contraction of ASM cells (pattern deflection),[1]; FIG. 11A,contraction

# — patent publication US11592438B2, “Device and method for force phenotyping of cells for high-throughput screening and analysis” (THE REGENTS OF THE UNIVERSITY OF CALIFORNIA, priority 2014, dated 2023)
